Source: ChEMBL document CHEMBL1212831, “Discovery of N-[(2S)-5-(6-fluoro-3-pyridinyl)-2,3-dihydro-1H-inden-2-yl]-2-propanesulfonamide, a novel clinical AMPA receptor positive modulator” (J Med Chem, 2010)
Activity calls are given as the source filed them. The calls are words filed in the database; no cut-off is given here.

Tests used:
Glutamate receptor 2 = Glutamate receptor 2 (Homo sapiens, UniProt P42262)
Description: Activation of human GluR2 flip isoform expressed in HEK293 cells assessed as increase of glutamate-induced intracellular calcium level by FLIPR assay

Cytochrome P450 1A2 = target: T1, Cytochrome P450 1A2 (Homo sapiens, UniProt P05177)
T1 sequence (P05177 whole entry): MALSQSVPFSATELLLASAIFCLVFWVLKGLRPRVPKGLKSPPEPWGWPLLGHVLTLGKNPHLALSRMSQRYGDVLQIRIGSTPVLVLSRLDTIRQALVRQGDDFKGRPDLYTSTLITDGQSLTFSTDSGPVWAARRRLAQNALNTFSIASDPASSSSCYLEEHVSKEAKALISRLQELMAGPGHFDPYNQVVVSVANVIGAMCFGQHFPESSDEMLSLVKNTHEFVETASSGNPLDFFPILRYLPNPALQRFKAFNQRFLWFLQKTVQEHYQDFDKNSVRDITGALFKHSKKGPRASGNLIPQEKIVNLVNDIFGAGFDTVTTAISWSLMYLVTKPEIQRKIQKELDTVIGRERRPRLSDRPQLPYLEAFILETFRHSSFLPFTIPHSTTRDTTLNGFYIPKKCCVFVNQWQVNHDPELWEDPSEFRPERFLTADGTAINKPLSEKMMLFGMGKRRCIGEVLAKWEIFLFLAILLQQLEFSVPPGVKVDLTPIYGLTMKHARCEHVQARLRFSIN
Description: Inhibition of human CYP1A2 after 10 mins

Cytochrome P450 2C9 = Cytochrome P450 2C9 (Homo sapiens, UniProt P11712)
Description: Inhibition of human CYP2C9 after 10 mins

Cytochrome P450 2C19 = Cytochrome P450 2C19 (Homo sapiens, UniProt P33261)
Description: Inhibition of human CYP2C19 after 10 mins

Cytochrome P450 2D6 = Cytochrome P450 2D6 (Homo sapiens, UniProt P10635)
Description: Inhibition of human CYP2D6 after 10 mins

Cytochrome P450 3A4 = Cytochrome P450 3A4 (Homo sapiens, UniProt P08684)
Description: Inhibition of human CYP3A4 after 10 mins

Liver microsomes [1] = test system: Liver microsomes
Liver microsomes [2] = test system: Liver microsomes; remark: listed apart in the source
in vivo = details: rat, brain/blood
Description: Ratio of brain AUC (0 to t) to blood AUC (0 to t) in rat

[3] = Plasma protein binding in rat at 1 ug/ml after 6 hrs by equilibrium dialysis method; assay type: ADME, cell-free; details: read-out: PPB (converted)
[4] = AUC (0 to t) in rat; assay type: ADME, organism-based; details: plasma
MDR1 (human) = assay: in vitro; details: dog, MDCK-MDR1
Description: Efflux ratio of permeability from basolateral to apical over apical to basolateral side of MDCK2 cells over expressing human MDR1

Brain [5] = assay: Brain tissue binding in rat at 1 ug/ml after 6 hrs by equilibrium dialysis method; assay type: ADME, tissue-based
[6] = Blood clearance in Sprague-Dawley rat at 1 mg/kg, iv and 3 mg/kg, po; assay type: ADME, organism-based
[7] = Half life in Sprague-Dawley rat at 1 mg/kg, iv and 3 mg/kg, po; assay type: ADME, organism-based; details: in vivo
[8] = Volume of distribution at steady state in Sprague-Dawley rat at 1 mg/kg, iv and 3 mg/kg, po; assay type: ADME, organism-based; details: in vivo, read-out: Vdss
[9] = Cmax in Sprague-Dawley rat at 3 mg/kg, po; assay type: ADME, organism-based; set-up: dose 3 mg/kg, route oral; details: in vivo
[10] = Tmax in Sprague-Dawley rat at 3 mg/kg, po; assay type: ADME, organism-based; set-up: dose 3 mg/kg, route oral; details: in vivo
[11] = Oral bioavailability in Sprague-Dawley rat at 3 mg/kg; assay type: ADME, organism-based; details: in vivo
Rattus norvegicus [12] = assay: Cognitive enhancing effect in po dosed Lister Hooded rat assessed as reversal of 24 hrs delay-induced retention deficit behavior by novel object recognition assay; assay type: functional; details: read-out: MED
Blood = assay: Drug level in po dosed Lister Hooded rat blood; assay type: ADME, organism-based; details: in vivo
Brain [13] = assay: Drug level in po dosed Lister Hooded rat brain assessed per gram of tissue; assay type: ADME, organism-based; details: in vivo
Rattus norvegicus [14] = assay: Antiamnesic activity in po dosed assessed as inhibition of Scopolamine-induced amnesic deficit administered 3 hrs before Scopolamine challenge by step-down passive avoidance test; assay type: functional, organism-based; details: Wistar
Rattus norvegicus [15] = assay: Antiamnesic activity in po dosed assessed as inhibition of amnesic deficit by step-down passive avoidance test; assay type: functional, organism-based; details: Wistar

Chain of Cytochrome P450 3A4 (P08684 whole entry): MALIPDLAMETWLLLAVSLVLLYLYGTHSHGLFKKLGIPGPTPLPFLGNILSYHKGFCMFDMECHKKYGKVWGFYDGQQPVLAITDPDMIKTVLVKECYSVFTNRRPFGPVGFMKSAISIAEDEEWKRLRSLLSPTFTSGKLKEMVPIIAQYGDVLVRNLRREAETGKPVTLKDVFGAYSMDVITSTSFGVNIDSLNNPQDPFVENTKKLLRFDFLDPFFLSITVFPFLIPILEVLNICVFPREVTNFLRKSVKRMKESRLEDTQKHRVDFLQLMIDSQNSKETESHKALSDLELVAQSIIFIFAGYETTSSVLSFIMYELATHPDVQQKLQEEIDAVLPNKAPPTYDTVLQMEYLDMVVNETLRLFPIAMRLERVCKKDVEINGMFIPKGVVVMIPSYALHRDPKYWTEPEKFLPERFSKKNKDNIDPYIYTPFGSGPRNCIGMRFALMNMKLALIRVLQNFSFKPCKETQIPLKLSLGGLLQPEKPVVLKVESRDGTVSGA
Chain of Cytochrome P450 2C19 (P33261 whole entry): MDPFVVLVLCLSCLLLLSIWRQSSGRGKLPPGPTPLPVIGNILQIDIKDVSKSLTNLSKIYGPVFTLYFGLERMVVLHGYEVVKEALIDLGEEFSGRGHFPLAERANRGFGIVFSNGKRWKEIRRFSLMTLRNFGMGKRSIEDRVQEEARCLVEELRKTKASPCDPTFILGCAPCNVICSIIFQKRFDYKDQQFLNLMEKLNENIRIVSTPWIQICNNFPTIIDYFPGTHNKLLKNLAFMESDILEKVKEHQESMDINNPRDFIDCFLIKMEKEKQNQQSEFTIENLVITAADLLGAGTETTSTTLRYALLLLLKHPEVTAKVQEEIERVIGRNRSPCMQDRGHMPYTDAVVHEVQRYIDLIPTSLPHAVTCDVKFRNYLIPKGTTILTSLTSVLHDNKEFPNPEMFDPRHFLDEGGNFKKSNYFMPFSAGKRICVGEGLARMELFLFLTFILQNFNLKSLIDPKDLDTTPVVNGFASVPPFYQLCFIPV
Chain of Cytochrome P450 2D6 (P10635 whole entry): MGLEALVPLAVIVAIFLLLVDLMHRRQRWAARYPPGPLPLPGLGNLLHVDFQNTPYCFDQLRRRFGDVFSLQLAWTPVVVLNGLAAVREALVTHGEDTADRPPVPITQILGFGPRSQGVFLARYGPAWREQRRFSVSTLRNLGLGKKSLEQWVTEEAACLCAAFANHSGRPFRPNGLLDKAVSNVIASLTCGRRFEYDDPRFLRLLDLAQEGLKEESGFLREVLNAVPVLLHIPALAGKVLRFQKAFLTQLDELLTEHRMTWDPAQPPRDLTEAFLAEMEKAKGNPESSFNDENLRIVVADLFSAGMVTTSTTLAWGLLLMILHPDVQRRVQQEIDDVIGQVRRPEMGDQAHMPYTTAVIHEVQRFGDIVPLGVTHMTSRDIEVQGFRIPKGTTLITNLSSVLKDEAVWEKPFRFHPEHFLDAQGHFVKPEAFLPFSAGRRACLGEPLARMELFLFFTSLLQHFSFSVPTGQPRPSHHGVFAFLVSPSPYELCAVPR
Chain of Glutamate receptor 2 (P42262 whole entry): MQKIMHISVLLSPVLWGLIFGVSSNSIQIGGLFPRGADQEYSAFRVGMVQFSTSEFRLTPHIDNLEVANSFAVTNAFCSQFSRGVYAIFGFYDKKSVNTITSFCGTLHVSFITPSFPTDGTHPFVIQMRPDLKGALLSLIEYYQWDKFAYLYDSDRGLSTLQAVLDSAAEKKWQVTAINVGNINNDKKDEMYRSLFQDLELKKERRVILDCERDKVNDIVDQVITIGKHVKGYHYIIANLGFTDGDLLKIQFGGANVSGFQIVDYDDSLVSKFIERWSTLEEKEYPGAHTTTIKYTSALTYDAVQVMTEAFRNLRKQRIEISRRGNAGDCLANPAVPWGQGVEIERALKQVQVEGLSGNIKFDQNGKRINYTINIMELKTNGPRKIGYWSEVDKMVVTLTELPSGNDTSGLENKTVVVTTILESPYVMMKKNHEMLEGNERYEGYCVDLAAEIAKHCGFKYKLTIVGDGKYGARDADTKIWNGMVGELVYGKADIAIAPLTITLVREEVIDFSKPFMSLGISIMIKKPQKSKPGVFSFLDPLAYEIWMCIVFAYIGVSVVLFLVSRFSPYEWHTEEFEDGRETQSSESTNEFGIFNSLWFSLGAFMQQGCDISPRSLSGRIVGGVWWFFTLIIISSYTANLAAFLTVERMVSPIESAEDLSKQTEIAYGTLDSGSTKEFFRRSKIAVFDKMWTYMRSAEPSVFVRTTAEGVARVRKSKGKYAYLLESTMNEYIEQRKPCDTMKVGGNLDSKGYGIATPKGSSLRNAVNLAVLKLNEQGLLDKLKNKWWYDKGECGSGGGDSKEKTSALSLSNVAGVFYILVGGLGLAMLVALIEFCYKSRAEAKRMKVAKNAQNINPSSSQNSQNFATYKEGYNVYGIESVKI
Chain of Cytochrome P450 2C9 (P11712 whole entry): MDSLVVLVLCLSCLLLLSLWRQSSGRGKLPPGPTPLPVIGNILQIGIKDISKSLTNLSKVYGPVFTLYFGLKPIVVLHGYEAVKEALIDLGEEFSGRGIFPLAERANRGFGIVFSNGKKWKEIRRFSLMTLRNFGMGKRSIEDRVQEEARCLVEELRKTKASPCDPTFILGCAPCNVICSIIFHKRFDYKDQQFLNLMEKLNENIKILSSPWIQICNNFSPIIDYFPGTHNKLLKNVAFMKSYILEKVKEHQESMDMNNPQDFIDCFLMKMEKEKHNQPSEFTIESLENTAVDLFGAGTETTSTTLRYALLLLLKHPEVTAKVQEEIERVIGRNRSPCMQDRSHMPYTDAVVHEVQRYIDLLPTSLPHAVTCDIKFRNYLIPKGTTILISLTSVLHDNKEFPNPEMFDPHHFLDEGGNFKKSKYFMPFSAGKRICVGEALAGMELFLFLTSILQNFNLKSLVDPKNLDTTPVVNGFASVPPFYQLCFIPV
Description for physchem: Dissociation constant, pKa of the compound

Compound	EC50 (Glutamate receptor 2)	IC50 (Cytochrome P450 1A2)	IC50 (Cytochrome P450 2C9)	IC50 (Cytochrome P450 2C19)	IC50 (Cytochrome P450 2D6)	IC50 (Cytochrome P450 3A4)	IC50 (Liver microsomes [1])	IC50 (Liver microsomes [2])	Kp (in vivo)	pKa (physchem)	fraction unbound at 6 h, 1 ug/ml [3]	efflux ratio (MDR1 (human))	further results
CC(C)S(=O)(=O)NC1Cc2ccc(-c3cccnc3F)cc2C1 (stereo not given)	15.8 µM	> 10 µM	> 10 µM	9 µM	> 10 µM	> 10 µM	2500 nM	2100 nM	1.5	–	–	–	–
CCS(=O)(=O)Nc1cccc(-c2ccc3c(c2)CC(NS(=O)(=O)C(C)C)C3)c1 (stereo not given)	2.51 µM	–	–	–	–	–	–	–	–	–	–	–	–
CC(C)S(=O)(=O)NC1Cc2ccc(-c3cccnc3)cc2C1 (stereo not given)	15.8 µM	0.6 µM	> 10 µM	> 10 µM	> 10 µM	> 10 µM	2100 nM	< 500 nM	–	5.1	–	–	–
CC(C)S(=O)(=O)NC1Cc2ccc(-c3cccc(N(C)S(C)(=O)=O)c3)cc2C1 (stereo not given)	1.26 µM	–	–	–	–	–	–	–	0.4	–	0.036	3.2	AUC(0-t) [4]: 161 ng·h/mL
CC(=O)Cc1cccc(-c2ccc3c(c2)CC(NS(=O)(=O)C(C)C)C3)c1 (stereo not given)	6.31 µM	–	–	–	–	–	–	–	–	–	–	–	–
CC(C)S(=O)(=O)NC1Cc2ccc(-c3cccc(NS(C)(=O)=O)c3)cc2C1 (stereo not given)	0.794 µM	–	–	–	–	–	–	–	0.1	–	0.041	5.8	AUC(0-t) [4]: 1130 ng·h/mL
CC(C)S(=O)(=O)NC1Cc2ccc(-c3cccc(CN4CCCC4=O)c3)cc2C1 (stereo not given)	12.6 µM	–	–	–	–	–	–	–	0.4	–	0.024	–	AUC(0-t) [4]: 36 ng·h/mL
Cc1ccc(-c2ccc3c(c2)CC(NS(=O)(=O)C(C)C)C3)cn1 (stereo not given)	3.16 µM	> 10 µM	> 10 µM	> 10 µM	> 10 µM	> 10 µM	2000 nM	700 nM	1.4	5.7	–	–	–
CC(C)S(=O)(=O)NC[C@H](C)c1ccc(NC(=O)c2cc(F)cc(F)c2)cc1	0.398 µM	–	–	–	–	–	–	–	–	–	–	–	–
Cc1ccc(-c2ccc3c(c2)C[C@@H](NS(=O)(=O)C(C)C)C3)cn1	2 µM	> 10 µM	> 10 µM	> 10 µM	> 10 µM	> 10 µM	3500 nM	< 600 nM	1.3	5.8	0.078	0.9	Activity (Brain [5]): 96.7%; clearance [6]: 55 mL/min/kg; half-life [7]: 36 min; Vd [8]: 2.4 L/kg; Cmax [9]: 116 ng/mL; Tmax [10]: 60 min; bioavailability [11]: 25%
CC(C)S(=O)(=O)NC1Cc2ccc(-c3cncc(C#N)c3)cc2C1 (stereo not given)	63.1 µM	> 10 µM	> 10 µM	> 10 µM	> 10 µM	> 10 µM	< 500 nM	700 nM	–	–	–	–	–
CC(C)S(=O)(=O)N[C@H]1Cc2ccc(-c3ccc(F)cn3)cc2C1	2 µM	> 10 µM	> 10 µM	> 10 µM	> 10 µM	> 10 µM	1600 nM	< 500 nM	1.4	2.7	0.097	1.1	Activity (Brain [5]): 97.9%; minimal effective dose (Rattus norvegicus [12]): 0.3 mg/kg; Drug uptake (Blood): 37 ng/mL; Drug uptake (Brain [13]): 70 ng/g; Activity (Rattus norvegicus [14]): Dose-dependent effect; inhibition (Rattus norvegicus [15]): inactive; clearance [6]: 24 mL/min/kg; half-life [7]: 60 min; Vd [8]: 2.2 L/kg; Cmax [9]: 436 ng/mL; Tmax [10]: 30 min; bioavailability [11]: 72%
Cc1ccc(-c2ccc3c(c2)CC(NS(=O)(=O)C(C)C)C3)nc1 (stereo not given)	3.16 µM	> 10 µM	> 10 µM	> 10 µM	> 10 µM	> 10 µM	7300 nM	800 nM	–	4.9	–	–	–
